Values of other authors in EP0438554B1, “NITROGENOUS AMBRUTICINES, PROCESS FOR OBTAINING THEM AND THEIR USE” (Gesellschaft für Biotechnologische Forschung mbH (GBF), priority 1989, dated 1991).

Conditions: in vitro; S.M. Ringel et al., J. of Antibiotics 30, 371 (1977)

## CC[C@H]1O[C@@H](/C(C)=C/[C@H](C)/C=C/[C@H]2[C@@H](C)[C@@H]2/C=C/[C@@H]2O[C@H](CC(=O)O)C[C@H](O)[C@H]2O)CC=C1C [Ambruticin]
  antibakterielle Wirkung: schwach antibakterielle
